Here are results for 8 compounds from patent US11034650B2, “Compounds useful for treating a Mannheimia haemolytica or Histophilus somni infection” (Intervet Inc., priority 2016, dated 2021).

Holding throughout (assay type): cell-based
Assay [1] deals with Pasteurella multocida PM 10775 (080130003051, BRD field isolate). Kind of assay: MIC, broth-microdilution (CLSI VET01-A4), strain PM 10775. As to conditions: Pasteurella multocida strain PM 10775, broth-microdilution; unit assumed. The protocol:
(§1) For example, representative compounds were tested against ***, Mannheimia haemolytica and Pasteurella multocida, using the conventional broth-dilution assay.
(§2) The Minimum inhibitory concentrations (MIC) of compounds according to the invention for a number of veterinary bacterial pathogens were determined by the broth-microdilution method according to CLSI document VET01-A4.
(§3) Microdilution trays containing a doubling dilution series of the test compound were used for the tests. The MIC results were interpreted according to the CLSI documents VET01-S3. The lowest concentration of compound at which no visible growth (i.e. no turbidity) detected by the unaided eye was recorded as the MIC.
A general note: Broth dilution looks for growth in wells or tubes with falling amounts of substance.

Assay [2] relates to Mannheimia haemolytica MH 10720 (154, BRD field isolate). Kind of assay: MIC, broth-microdilution (CLSI VET01-A4), strain MH 10720. To be noted: Mannheimia haemolytica strain MH 10720, broth-microdilution; unit assumed. The method, then: as §1, §2, §3
Assay [3] has as its system Mannheimia haemolytica MH 6374 (ATCC 33396, reference strain). As to the kind of experiment: MIC, broth-microdilution (CLSI VET01-A4), strain MH 6374. As to conditions: Mannheimia haemolytica strain MH 6374, broth-microdilution; unit assumed. The protocol:
as §1, §2, §3

Assay [4] deals with Pasteurella multocida PM 6267 (P 2225 (L386), reference strain, mouse infection strain). As to the kind of experiment: MIC, broth-microdilution (CLSI VET01-A4), strain PM 6267. To be noted: Pasteurella multocida strain PM 6267, broth-microdilution; unit assumed. The method, then: as §1, §2, §3
Assay [5] deals with Mannheimia haemolytica MH 6357 (M7/2, reference strain, cattle infection strain). As to the kind of experiment: MIC, broth-microdilution (CLSI VET01-A4), strain MH 6357. As to conditions: Mannheimia haemolytica strain MH 6357, broth-microdilution; unit assumed. The protocol: as §1, §2, §3
In assay [6] the test system is Pasteurella multocida PM 12080 (IV102277-0093, BRD field isolate). As to the kind of experiment: MIC, broth-microdilution (CLSI VET01-A4), strain PM 12080. As to conditions: Pasteurella multocida strain PM 12080, broth-microdilution; unit assumed. The protocol:
as §1, §2, §3

Assay [7] relates to Mannheimia haemolytica MH 12587 (1071, BRD field isolate, macrolide-resistance: erm+, E+). As to the kind of experiment: MIC, broth-microdilution (CLSI VET01-A4), strain MH 12587. As to conditions: Mannheimia haemolytica strain MH 12587, broth-microdilution; unit assumed. The protocol: as §1, §2, §3
The subject of assay [8] is Mannheimia haemolytica MH 13065 (XB0446-6003.9, BRD field isolate). As to the kind of experiment: MIC, broth-microdilution (CLSI VET01-A4), strain MH 13065. To be noted: Mannheimia haemolytica strain MH 13065, broth-microdilution; unit assumed. The method, then:
as §1, §2, §3

Assay [9] deals with Mannheimia haemolytica MH 13093 (XB0472-6014.1, BRD field isolate). As to the kind of experiment: MIC, broth-microdilution (CLSI VET01-A4), strain MH 13093. As to conditions: Mannheimia haemolytica strain MH 13093, broth-microdilution; unit assumed. The method, then:
as §1, §2, §3

In brackets after ≈: the same amount, converted by molar mass. A value given as a limit tells only on which side of the number the result lay.

Regarding `C=CCNCc1cccc(C#Cc2ccc(C(=O)N[C@H](C(=O)NO)[C@@H](C)CC)cc2)c1` [Compound 49], the MIC PM 10775 in assay [1] is 0.8 µg/mL (≈ 1.91 µM). Also, the MIC MH 10720 in [2] was determined as 6.3 µg/mL (≈ 15 µM). The same compound yielded an MIC MH 6374 in assay [3] of 12.5 µg/mL (≈ 29.8 µM). Further, the MIC PM 6267 in assay [4] came to 3.1 µg/mL (≈ 7.39 µM). In addition, the MIC MH 6357 in assay [5] came to 12.5 µg/mL (≈ 29.8 µM). Further, the MIC PM 12080 in [6] was determined as 12.5 µg/mL (≈ 29.8 µM). In addition, the MIC MH 12587 in assay [7] is 25 µg/mL (≈ 59.6 µM). Besides, in assay [8], the MIC MH 13065 came to 12.5 µg/mL (≈ 29.8 µM). The compound also had an MIC MH 13093 in assay [9] of 12.5 µg/mL (≈ 29.8 µM).
Turning to `O=C(N[C@@H](CO)C(=O)NO)c1ccc(C#Cc2ccc(CNC3CC3)cc2)cc1` [Compound 71], the MIC PM 10775 in assay [1] was ≤ 0.1 µg/mL. For the same compound, the MIC MH 10720 in assay [2] turned out to be 0.4 µg/mL (≈ 1.02 µM). In addition, the MIC MH 6374 in assay [3] came to 0.8 µg/mL (≈ 2.03 µM). The MIC PM 6267 in assay [4] came to 0.2 µg/mL (≈ 0.508 µM). In [5], this compound returned an MIC MH 6357 of 1.6 µg/mL (≈ 4.07 µM). In assay [6], this compound had an MIC PM 12080 of 0.4 µg/mL (≈ 1.02 µM). Also, the MIC MH 12587 in [7] worked out at 1.6 µg/mL (≈ 4.07 µM). Further, the MIC MH 13065 in [8] is 0.8 µg/mL (≈ 2.03 µM). This compound also displayed an MIC MH 13093 in assay [9] of 3.1 µg/mL (≈ 7.88 µM).
Take `CC(C)NCc1ccc(C#Cc2ccc(C(=O)N[C@@H](CO)C(=O)NO)cc2)cc1` [Compound 72]: in assay [1], the MIC PM 10775 was determined as 0.8 µg/mL (≈ 2.02 µM). For the same compound, the MIC MH 10720 in assay [2] is 6.3 µg/mL (≈ 15.9 µM). In addition, the MIC MH 6374 in assay [3] was 12.5 µg/mL (≈ 31.6 µM). This compound had an MIC PM 6267 in [4] of 1.6 µg/mL (≈ 4.05 µM). Moreover, the MIC MH 6357 in assay [5] came out at 12.5 µg/mL (≈ 31.6 µM). Besides, the MIC PM 12080 in assay [6] was determined as 12.5 µg/mL (≈ 31.6 µM). In addition, the MIC MH 12587 in assay [7] is 25 µg/mL (≈ 63.2 µM). In addition, the MIC MH 13065 in [8] was 12.5 µg/mL (≈ 31.6 µM). For the same compound, the MIC MH 13093 in assay [9] worked out at 12.5 µg/mL (≈ 31.6 µM).
As for `C=CCNCc1ccc(C#Cc2ccc(C(=O)N[C@@H](CO)C(=O)NO)cc2)cc1` [Compound 73], the MIC PM 10775 in [1] is ≤ 0.1 µg/mL. The MIC MH 10720 in assay [2] turned out to be 3.1 µg/mL (≈ 7.88 µM). Also, the MIC MH 6374 in [3] came to 3.1 µg/mL (≈ 7.88 µM). For the same compound, the MIC PM 6267 in [4] was 0.4 µg/mL (≈ 1.02 µM). In addition, the MIC MH 6357 in [5] amounted to 3.1 µg/mL (≈ 7.88 µM). In assay [6], this compound yielded an MIC PM 12080 of 1.6 µg/mL (≈ 4.07 µM). This compound also displayed an MIC MH 12587 in [7] of 6.3 µg/mL (≈ 16 µM). In assay [8], this compound registered an MIC MH 13065 of 3.1 µg/mL (≈ 7.88 µM). Also, in assay [9], the MIC MH 13093 turned out to be 3.1 µg/mL (≈ 7.88 µM).
For the compound `COCCNCc1ccc(C#Cc2ccc(C(=O)N[C@@H](CO)C(=O)NO)cc2)cc1` [Compound 74], the MIC PM 10775 in assay [1] is ≤ 0.1 µg/mL. In assay [2], the MIC MH 10720 was found to be 3.1 µg/mL (≈ 7.53 µM). Moreover, in [3], the MIC MH 6374 was found to be 3.1 µg/mL (≈ 7.53 µM). The compound also returned an MIC PM 6267 in assay [4] of 0.8 µg/mL (≈ 1.94 µM). Moreover, the MIC MH 6357 in assay [5] stood at 3.1 µg/mL (≈ 7.53 µM). The compound further registered an MIC PM 12080 in assay [6] of 3.1 µg/mL (≈ 7.53 µM). In addition, the MIC MH 12587 in [7] is 12.5 µg/mL (≈ 30.4 µM). Also, the MIC MH 13065 in assay [8] worked out at 6.3 µg/mL (≈ 15.3 µM). The compound further came in with an MIC MH 13093 in assay [9] of 12.5 µg/mL (≈ 30.4 µM).
Compound `CCN(CC)Cc1ccc(C#Cc2ccc(C(=O)N[C@@H](CO)C(=O)NO)cc2)cc1` [Compound 76] yielded an MIC PM 10775 in assay [1] of 0.2 µg/mL (≈ 0.488 µM). In assay [2], the MIC MH 10720 was determined as 6.3 µg/mL (≈ 15.4 µM). In assay [3], the MIC MH 6374 came out at 25 µg/mL (≈ 61.1 µM). The same compound displayed an MIC PM 6267 in [4] of 0.4 µg/mL (≈ 0.977 µM). In [5], this compound came in with an MIC MH 6357 of 12.5 µg/mL (≈ 30.5 µM). This compound also yielded an MIC PM 12080 in assay [6] of 3.1 µg/mL (≈ 7.57 µM). In assay [7], the MIC MH 12587 was determined as 25 µg/mL (≈ 61.1 µM). The same compound registered an MIC MH 13065 in assay [8] of 12.5 µg/mL (≈ 30.5 µM). In assay [9], this compound displayed an MIC MH 13093 of 25 µg/mL (≈ 61.1 µM).
Regarding `O=C(N[C@@H](CO)C(=O)NO)c1ccc(C#Cc2ccc(CN3CCOCC3)cc2)cc1` [Compound 77], in assay [1], the MIC PM 10775 was ≤ 0.1 µg/mL. In assay [2], this compound had an MIC MH 10720 of 0.8 µg/mL (≈ 1.89 µM). In assay [3], this compound gave an MIC MH 6374 of 1.6 µg/mL (≈ 3.78 µM). Also, the MIC PM 6267 in [4] was ≤ 0.1 µg/mL. This compound also returned an MIC MH 6357 in assay [5] of 6.3 µg/mL (≈ 14.9 µM). In assay [6], this compound displayed an MIC PM 12080 of 0.8 µg/mL (≈ 1.89 µM). Also, the MIC MH 12587 in [7] was 3.1 µg/mL (≈ 7.32 µM). In assay [8], this compound returned an MIC MH 13065 of 3.1 µg/mL (≈ 7.32 µM). The compound further had an MIC MH 13093 in assay [9] of 3.1 µg/mL (≈ 7.32 µM).
With `CC[C@H](C)[C@H](NC(=O)c1ccc(C#Cc2ccc(CNCc3ccc(C)cc3)cc2)cc1)C(=O)NO` [Compound 189], the MIC PM 10775 in assay [1] was ≤ 0.1 µg/mL. In [3], this compound came in with an MIC MH 6374 of 3.1 µg/mL (≈ 6.41 µM). This compound returned an MIC PM 6267 in assay [4] of 0.2 µg/mL (≈ 0.414 µM). The MIC MH 6357 in [5] was determined as 1.6 µg/mL (≈ 3.31 µM). Moreover, the MIC PM 12080 in assay [6] is 0.4 µg/mL (≈ 0.827 µM). Further, the MIC MH 12587 in assay [7] turned out to be 3.1 µg/mL (≈ 6.41 µM). This compound yielded an MIC MH 13065 in [8] of 1.6 µg/mL (≈ 3.31 µM). Also, the MIC MH 13093 in [9] was 3.1 µg/mL (≈ 6.41 µM).
